Assay results reported in patent US9134325B2, “Resistance biomarkers for HDAC inhibitors” (Celgene Corporation, priority 2012, dated 2015).
Where “and” joins values, the source holds several entries; their conditions need not be identical. Equal entries are not always repeated.

What was measured:
[1] = tested on: cell line panel; experiment: Cell line panel viability screen (Cell Titer-Glo), S-value; type: cell-based
Protocol: (§1) Sensitivity of cells to HDAC inhibitor treatment is expressed as their S-value (S), which is a dimensionless compound value generated by adding the values of IC50 and the growth rate (GR) at the maximum drug concentration used to determine the IC50. The term (maximum drug concentration/200) is added in the equation below to achieve equal weighting of the S-value for IC50 and GR. S=IC50+(GR+100)×(maximum drug concentration/200) See FIG. 1 for an example of an S value calculation and explanation of GR.
(§2) To determine cell growth IC50 and GR at a given drug concentration, growth was plotted against drug concentration as a percentage of the number of cells present at the beginning of the experiment. Cells were plated in 96-well plates and allowed to attach and grow overnight. The following day, the cells were treated with serial dilutions of test compound. The viable cells were measured at day 0 (24 hours after plating) and day 3 (72 hours after adding the tested compound) using Cell Titer-Glo. Growth was calculated compared to day 0.
(§3) The plot generated two key data, the IC50 value and the % growth at the highest tested compound concentration (GR). The highest concentration tested for romidepsin was 1000 nM.
The IC50s in these experiments could range from 0-1000 nM. […] Growth at the highest drug concentration tested ranged from −100 to +100. For the calculation of the S-Value, 100 was added to the numerical value of the observed growth, so that only positive numbers were generated (after adding 100, the range was from 0-200). Since IC50s and growth at the maximum drug concentration tested have different numerical ranges (0-1000 as compared to 0-200), the value for growth inhibition was multiplied by the maximum drug concentration used/200. This means that in the example given, both IC50 and GR could contribute values of 0-1000 to the S-value.
A cell line panel viability screen was used to compare the effects of a 6 hour and 72 hour treatment with romidepsin across a wide variety of cell lines. […] The S-Value was computed for the 6 h treatment and ranged from 5 for the most sensitive cell lines to 2000 for the most resistant cell lines. To identify genes whose expression correlated with sensitivity to HDAC inhibitor treatment, we applied two way ANOVA to select genes that were correlated with sensitivity. […] The most overexpressed gene in the resistant subgroup, ABCB1 (Res/Sen=29.6) is known to cause resistance to romidepsin treatment. This approach identified novel genes that correlated with resistance and/or sensitivity to the HDAC inhibitors but not tissue origin.
A cell line panel viability screen was used to compare the effects of romidepsin across a wide variety of cell lines and is shown in FIG. 3.

[2] = tested on: HDF TSPYL5 KD cells; experiment: Cell growth assay in human dermal fibroblasts with TSPYL5 knockdown; type: cell-based; details: HDF TSPYL5 KD versus HDF NS, FIG. 8
Excerpt: FIG. 8 depicts the effect of knockdown of TSPYL5 expression on sensitivity of HDF cells to romidepsin using shRNA, as measured by the effect of romidepsin treatment on IC50 (Panel A), growth rate (GR) (Panel B) and S value (Panel C). Sensitivity of TSPYL5 knockdown cells to romidepsin is increased as measured by S value and growth rate. HDF cells expressing either TSPYL5 shRNA (HDF TSPYL5 KD) or non-silencing control shRNA (HDF NS) were created using lentiviral infection. Knockdown of TSPYL5 in HDF TSPYL5 KD cells was verified using western blot and quantitative PCR. Expression of TSPYL5 in these cells was reduced by >70%. After selection of stable pools with puromycen, cells were treated with varying concentrations of romidepsin for determination of IC50, GR and S value. The data shown are means and standard deviations from 8 independent experiments. Panel A: Romidepsin IC50s for HDF TSPYL5 KD cells and HDF NS cells. Panel B: Romidepsin GR for HDF TSPYL5 KD cells and HDF NS cells. […]
as §2, with “Cells were plated in 96-well plates and allowed to attach and grow overnight. The following day, the cells were treated with serial dilutions of test compound.” left out

[3] = tested on: primary human tumors propagated in mice; experiment: Clonogenic two-layer soft agar assay of primary patient tumor explants; type: cell-based; details: IC50 of clonogenic assay against TSPYL5 expression, FIG. 4
Protocol: Primary human tumors were propagated in mice. Tumors were dissociated and their sensitivity to romidepsin was tested using a clonogenic assay.
The clonogenic assay was performed in a 24-well format according to a modified two-layer soft agar assay introduced by Hamburger & Salmon (Hamburger A W, Salmon S E. Primary bioassay of human tumor stem cells. Science 197:461 (1977)). Briefly, cells were seeded on a bottom layer of growth medium supplemented with 0.4% (w/v) agar. Cells were added in 0.2 ml of the same medium supplemented with 0.4% (w/v) agar. Test compounds were applied diluted in culture medium. Cultures were incubated at 37° C. and 7.5% CO2 in a humidified atmosphere for up to 21 days. After 4-21 days, colonies were counted and drug effect was expressed as percent colony formations compared to untreated controls.

[4] = tested on: SKOV3 TSPYL5 KD cells; experiment: Cell growth assay (Cell Titer-Glo) in SKOV3 cells expressing TSPYL5 shRNA; type: cell-based
Protocol: as §1, §2
The plot generated two key data, the IC50 value and the % growth at the highest tested compound concentration (GR). […]
Effect of knocking down TSPYL5 expression using shRNA on IC50, GR and S values of romidepsin treatment. […] Knockdown of TSPYL5 in SKOV3 TSPYL5 KD cells was verified using western blot and quantitative PCR. […]

[5] = tested on: class 1 HDACs 1 and 2; details: data from Bradner et al., FIG. 6; cited from earlier work
[6] = tested on: SKOV3 NS cells; experiment: Cell growth assay (Cell Titer-Glo) in SKOV3 cells expressing non-silencing control shRNA; type: cell-based; details: for IC50: romidepsin, 5 independent experiments
Protocol: as §1, §2, §3
Effect of knocking down TSPYL5 expression using shRNA on IC50, GR and S values of romidepsin treatment. SKOV3 cells expressing either TSPYL5 shRNA (SKOV3 TSPYL5 KD) or non-silencing control shRNA (SKOV3 NS) were created using lentiviral infection. Knockdown of TSPYL5 in SKOV3 TSPYL5 KD cells was verified using western blot and quantitative PCR. Expression of TSPYL5 in these cells was reduced by 70%. After selection of stable pools with puromycin, cells were treated with varying concentrations of romidepsin for determination of IC50, GR and S value. Data from 5 independent experiments are shown. SKOV3 TSPYL5 KD cells have lower IC50s, show […] growth rate (GR) and have thus smaller S values than SKOV3 NS cells, meaning these cells are more sensitive to treatment with romidepsin. The data are plotted in FIG. 5. Differences between the 2 lines are significant (paired t test).

[7] = target: T1, class 2 HDAC 6 (Homo sapiens, UniProt Q9UBN7); details: data from Bradner et al., FIG. 6; cited from earlier work
T1 sequence (Q9UBN7 1-1215): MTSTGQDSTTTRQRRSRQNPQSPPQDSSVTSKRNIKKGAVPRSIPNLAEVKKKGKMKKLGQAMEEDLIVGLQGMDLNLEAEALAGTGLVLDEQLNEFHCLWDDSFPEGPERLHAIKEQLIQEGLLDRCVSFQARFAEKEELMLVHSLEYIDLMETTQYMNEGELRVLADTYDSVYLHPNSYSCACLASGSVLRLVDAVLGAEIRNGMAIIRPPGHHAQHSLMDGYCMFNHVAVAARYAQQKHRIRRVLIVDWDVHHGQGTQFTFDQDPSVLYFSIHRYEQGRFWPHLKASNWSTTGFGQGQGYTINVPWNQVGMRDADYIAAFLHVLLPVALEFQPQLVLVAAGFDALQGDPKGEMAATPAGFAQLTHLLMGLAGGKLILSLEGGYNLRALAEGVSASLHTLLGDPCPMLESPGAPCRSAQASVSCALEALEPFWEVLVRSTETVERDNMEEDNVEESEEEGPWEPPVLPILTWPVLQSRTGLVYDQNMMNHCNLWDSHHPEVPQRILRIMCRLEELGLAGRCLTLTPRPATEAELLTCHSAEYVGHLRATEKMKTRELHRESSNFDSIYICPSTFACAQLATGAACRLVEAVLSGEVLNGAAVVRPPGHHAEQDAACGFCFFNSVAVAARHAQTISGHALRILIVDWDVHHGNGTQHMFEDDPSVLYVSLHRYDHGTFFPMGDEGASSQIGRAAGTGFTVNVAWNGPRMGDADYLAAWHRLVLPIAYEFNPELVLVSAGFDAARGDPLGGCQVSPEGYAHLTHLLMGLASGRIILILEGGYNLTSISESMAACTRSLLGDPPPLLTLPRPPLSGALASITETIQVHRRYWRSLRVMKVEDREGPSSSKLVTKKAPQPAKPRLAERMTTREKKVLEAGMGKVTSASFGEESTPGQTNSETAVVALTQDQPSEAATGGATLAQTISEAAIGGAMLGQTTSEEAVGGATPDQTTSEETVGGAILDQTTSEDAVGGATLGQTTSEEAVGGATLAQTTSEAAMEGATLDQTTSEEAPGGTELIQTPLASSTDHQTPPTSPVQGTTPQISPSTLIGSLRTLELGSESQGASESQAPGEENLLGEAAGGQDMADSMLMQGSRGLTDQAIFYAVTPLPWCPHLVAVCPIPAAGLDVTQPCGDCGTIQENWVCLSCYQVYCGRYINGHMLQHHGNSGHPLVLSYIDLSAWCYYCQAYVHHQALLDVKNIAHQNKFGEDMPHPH

Compound: C/C=C1\NC(=O)[C@H]2CSSCC/C=C/[C@H](CC(=O)N[C@H](C(C)C)C(=O)N2)OC(=O)[C@H](C(C)C)NC1=O [romidepsin]
- Sensitivity by tissue of origin ([1]; 6 h drug treatment, S value, FIG. 2B): blood cell lines show the greatest sensitivity
- S-value across cell lines ([1]; 6 h drug treatment, most sensitive to most resistant cell lines): 4-2000
- Sensitivity of cell lines ([1]; 72 hour treatment): majority of the tested cell lines showed sensitivity
- Sensitivity of cell lines expressing high levels of TSPYL5 ([1]; S value against TSPYL5 gene expression, FIG. 3): no cell line expressing high levels of TSPYL5 was sensitive
- IC50 ([1]; read-out: IC50 of cell growth): 97.3 nM
- Effect of TSPYL5 knockdown on sensitivity of HDF cells [2]: increases sensitivity
- Sensitivity of primary tumors with high TSPYL5 expression [3]: resistant
- S value ([4]; S=IC50+(GR+100)×(maximum drug concentration/200)): 156 and 115 and 105 and 112 and 135
- GR (growth at the highest tested concentration) ([4]; highest romidepsin concentration 1000 nM, relative to day 0): −92.5% and −88.6% and −93.2% and −86.1% and −84.3%
- Inhibition of class 1 HDACs 1 and 2 [5]: inhibit
- IC50 ([6]; Homo sapiens, SK-OV-3, SKOV3 NS (non-silencing control shRNA)): 141 nM
- IC50 ([6]; SKOV3 NS (non-silencing control shRNA)): 136 nM and 139 nM and 98 nM and 162 nM
- S value ([6]; SKOV3 NS, S=IC50+(GR+100)×(maximum drug concentration/200)): 291 and 253 and 256 and 230 and 243

Compound: O=C(CCCCCCC(=O)Nc1ccccc1)NO [vorinostat]
- Inhibition of class 2 HDAC 6 [7]: inhibit

Compound: Nc1ccccc1NC(=O)c1ccc(CNC(=O)OCc2cccnc2)cc1 [entinostat]
- Inhibition of class 1 HDACs 1 and 2 [5]: inhibit
